The values below come from US11771634B2, “Antimicrobial antifungal composition” (GODREJ INDUSTRIES LIMITED, priority 2021, dated 2023).

Data set [1] relates to gm +ve and gm −ye micro-organism. As to the kind of experiment: Antibacterial efficacy by MIC, overall conclusion. Format: cell-based. The protocol:
(§1) The minimum inhibitory concentration (MIC) of an antibacterial is the maximum dilution of the product that will still inhibit the growth of a test microorganism. In Tube/Plate dilution method, serial dilutions of the products are made in bacterial growth media, incubated, and scored for growth. It was determined by Tube/Plate method.

The subject of data set [2] is M. furfur. As to the kind of experiment: Time kill method (ASTM E 2315-16). Format: cell-based, Malassezia furfur. Conditions: 1% AI. From the text:
Time Kill Method (at 1% AI) Against Test Organism M. furfur.

A further data set has as its system Candida albicans. The data set can be described thus: MIC by Tube/Plate dilution method. Format: cell-based. As to the method:
as §1

A further data set concerns Staph. aureus. The data set can be described thus: MIC by Tube/Plate dilution method. Format: cell-based. As to the method: as §1
The subject of a further data set is Escherichia coli. As to the kind of experiment: MIC by Tube/Plate dilution method. The data set is classed as cell-based. As to the method: as §1
The next data set deals with Ps. aeruginosa. The data set can be described thus: MIC by Tube/Plate dilution method. Format: cell-based. The protocol: as §1
The test system of data set [3] is M. furfur. As to the kind of experiment: Anti-dandruff efficacy, zone of inhibition. Format: cell-based, Malassezia furfur. The text has this: Comparison of Anti-Dandruff Efficacy Against M. furfur

Text for zein (corn protein): The Zein test enables to determine the irritation potential (harshness) of a surfactant-based product (shower gel, shampoo, soap, washing-up liquid, etc.). It consists in making soluble a yellow corn protein that is similar to the keratin present in the skin and hair. The irritation potential of the product is directly proportional to the quantity of dissolved proteins. The Zein Test provides a rapid and convenient screen for irritation potential, especially for compositions that contain surface active agents.
This method involves measuring the solubility of zein (corn protein) in cleansing base solutions as follows.
To 40 mL of samples, 2 f 0.05 g of zein from corn was added. The solutions with zein were shaken in a shaker with water bath (60 min. at 35° C.). The solutions were filtered on Whatman No. 1 filters and then centrifuged at 5000 rpm for 10 min. The nitrogen content in the solutions was determined by Kjeldahl method. One millilitre of the filtrate was mineralized in sulfuric acid (98%) containing copper sulphate pentahydrate and potassium sulphate. After mineralization, the solution was transferred (with 50 mL of Milli-Q water) into the flask of the Wagner-Parnas apparatus. In the next step, 20 mL of sodium hydroxide (25 wt. %) was added. The released ammonia was distilled with steam. […]
The zein number (ZN) was calculated from the equation: ZN=(10−V1)·100·0.7 [mg N/100 mL] […]

For the compound `C=CCCCCCCCCC(=O)NCCC[N+](C)(C)CC(O)COP(=O)([O-])OCC(O)C[N+](C)(C)CCCNC(=O)CCCCCCCCC=C.[Cl-]` (stereo not drawn) [UDAP PB, Undecylenamidopropyl PG-Dimonium Chloride Phosphate], in data set [1], the “Antibacterial efficacy” value is recorded as “effective antibacterial”. Further, the “Zein Number (ZN)” value in the data set with zein (corn protein) was 36 mg N/100 mL. The “Antimicrobial Activity Log Reduction” value in the data set on M. furfur [2] (exposure time 1 minute) and with M. furfur [2] (exposure time 5 minutes) was >4.19 Log throughout. The “Antimicrobial Activity Percentage reduction” value in the data set on M. furfur [2] (exposure time 1 minute) and in the data set on M. furfur [2] (exposure time 5 minutes) was >99.99% in each case. The “Count of Test Organism After Exposure CFU/ml” value in the data set on M. furfur [2] (exposure time 1 minute) and with M. furfur [2] (exposure time 5 minutes) was <10 CFU/ml throughout. The “Count of Test Organism After Exposure Log” value with M. furfur [2] (exposure time 1 minute) and with M. furfur [2] (exposure time 5 minutes) was <1 Log throughout. The MIC against Candida albicans is <200 ppm; against Staph. aureus, <300 ppm; in the data set on Escherichia coli, <300 ppm; against Ps. aeruginosa it was <700 ppm. The “Comments (zone of inhibition)” value in the data set on M. furfur [3] (Active Conc. 1%) and with M. furfur [3] (Active Conc. 2%) was “Effective” each time. Further, the “Zone of Inhibition (ZOI)” value is reported as 28 mm in the data set with M. furfur [3] (Active Conc. 1%) and 33 mm in the data set on M. furfur [3] (Active Conc. 2%).
Turning to “zinc pyrithione [ZnPTO, reference compound]”, in the data set on M. furfur [2] (exposure time 1 minute), the “Antimicrobial Activity Log Reduction” value is >3.95 Log, the “Antimicrobial Activity Percentage reduction” value was >99.98%, the “Count of Test Organism After Exposure CFU/ml” value is on record as <10 CFU/ml and the “Count of Test Organism After Exposure Log” value is <1 Log. Moreover, in the data set with M. furfur [2] (exposure time 5 minutes), the “Antimicrobial Activity Log Reduction” value was >3.95 Log, the “Antimicrobial Activity Percentage reduction” value is reported as >99.98%, the “Count of Test Organism After Exposure CFU/ml” value is <10 CFU/ml and the “Count of Test Organism After Exposure Log” value is <1 Log. Besides, in the data set with M. furfur [3] (Active Conc. 1%), the “Comments (zone of inhibition)” value is on record as “Effective” and the “Zone of Inhibition (ZOI)” value is listed as 34 mm. Moreover, in the data set on M. furfur [3] (Active Conc. 2%), the “Comments (zone of inhibition)” value is “Effective” and the “Zone of Inhibition (ZOI)” value is 41 mm.
